Measurements as given in patent publication US6187772A, “Pyrroloazepine compounds” (Suntory Limited, priority 1997, dated 2001).

Legend:
[1] = test system: α1; experiment: Anti-α1 action (contraction of guinea pig thoracic aorta induced by norepinephrine); assay type: cell-based, Hartley male guinea pig; conditions: tonic contraction induced by 10^-5 M norepinephrine = 100%, helical thoracic aorta preparation, Tyrode solution, 37° C; for Anti α1 action (% of Control), 10^-7 M: test drug 10^-7 M, 0.1 µM; for Anti α1 action (% of Control), 10^-8 M: test drug 10^-8 M, 0.01 µM
Procedure: (§1) With respect to the compounds of the present invention, their anti-α1 action and anti-serotonin (5-HT) action were investigated by the methods which will be described below.
The thoracic aorta of each Hartley male guinea pig (body weight: 300-500 g) was excised. A preparation cut in a helical form was suspended under 1 g load in a Magnus cylinder filled with the Tyrode solution which had been aerated with a gas mixture of 95% O2 and 5% CO2 and maintained at 37° C. Using an isometric transducer ("TB-612J", manufactured by Nihon Kohden Corporation) and a pressure preamplifier ("AP-620G", manufactured by Nihon Kohden Corporation), variations in tension were measured. The isometric tensions were recorded on a thermal pen-writing recorder ("WT-647G", manufactured by Nihon Kohden Corporation). Taking the tonic contraction induced by 10^-5 M norepinephrine (NE) as 100%, the percent contractions upon addition of each test drug at 10^-8 M and 10^-7 M were determined as anti-α1 action.

[2] = biological target: serotonin (5-HT) (Cavia porcellus, UniProt A0A286Y537); experiment: Anti-serotonin (5-HT) action (contraction of guinea pig superior mesenteric artery induced by serotonin); assay type: cell-based, Hartley male guinea pig; conditions: contraction induced by 10^-5 M 5-HT = 100%, helical superior mesenteric artery preparation, Tyrode solution, 37° C; for remaining activity at 1 µM: test drug 10^-6 M, read-out: Anti 5-HT action (% of Control), 10^-6 M; for remaining activity at 0.1 µM: test drug 10^-7 M, read-out: Anti 5-HT action (% of Control), 10^-7 M
serotonin (5-HT), sequence (A0A286Y537 1-470): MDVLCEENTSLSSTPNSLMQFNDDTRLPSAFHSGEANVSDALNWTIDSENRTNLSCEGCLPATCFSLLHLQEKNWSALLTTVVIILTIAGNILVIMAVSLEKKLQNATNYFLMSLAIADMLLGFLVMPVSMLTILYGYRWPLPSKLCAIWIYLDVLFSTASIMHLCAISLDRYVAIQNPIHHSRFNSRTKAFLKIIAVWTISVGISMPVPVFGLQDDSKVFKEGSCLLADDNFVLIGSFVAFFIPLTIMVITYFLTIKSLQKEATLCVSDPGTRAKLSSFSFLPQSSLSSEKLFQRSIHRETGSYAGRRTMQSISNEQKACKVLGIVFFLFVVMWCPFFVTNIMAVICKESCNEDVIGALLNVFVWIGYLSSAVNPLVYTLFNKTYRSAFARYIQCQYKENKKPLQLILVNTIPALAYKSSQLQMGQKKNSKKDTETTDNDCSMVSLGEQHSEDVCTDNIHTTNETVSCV
Procedure: as §1
(2) Anti-serotonin (5-HT) action
A preparation cut in a helical form was suspended under restomg tension of 0.3 g in a Magnus cylinder filled with the Tyrode solution which had been aerated with a gas mixture of 95% O2 and 5% CO2 and maintained at 37° C. Using an isometric transducer ("UL-10", manufactured by SHINKOH K.K.) and a pressure preamplifier ("DSA-605A", manufactured by SHINKOH K.K.), variations in tension were measured. The isometric tensions were recorded on a pen-writing recorder ("VP-6537A", manufactured by NATIONAL K.K.). Taking the contraction induced by 10^-5 M serotonin (5-HT) as 100%, the percent contractions by 10^-5 M 5-HT in the presence of each test drug at 10^-8 M, 10^-7 M and 10^-6 M were determined as anti-5-HT action.

For `CN1CCC(=O)c2c(ccn2CCCCN2CCC(C(=O)c3ccc(F)cc3)CC2)C1=O` [Compound No. 15, 1-[4-[4-(4-fluorobenzoyl)piperidino]-butyl]-5-methyl-1,4,5,6,7,8-hexahydropyrrolo[3,2-c]azepine-4,8-dione], the “Anti α1 action (% of Control), 10^-7 M” value [1] was 35.4 % of Control, the “Anti α1 action (% of Control), 10^-8 M” value [1] was 59.9 % of Control and the remaining activity at 1 µM [2] was 26.6%. The remaining activity at 0.1 µM [2] was 75.3%.
`CN1CCC(=O)c2c(ccn2CCCCN2CCC(c3noc4cc(F)ccc34)CC2)C1=O` [Compound No. 17, 1-[4-[4-(6-fluoro-1,2-benzisoxazol-3-yl)piperidino]butyl]-5-methyl-1,4,5,6,7,8-hexahydropyrrolo[3,2-c]azepine-4,8-dione] was tested, and the “Anti α1 action (% of Control), 10^-7 M” value [1] was 14.0 % of Control, the “Anti α1 action (% of Control), 10^-8 M” value [1] was 27.8 % of Control and the remaining activity at 1 µM [2] was 8.9%. It also gave a remaining activity at 0.1 µM [2] of 55.2% and a remaining activity at 0.01 µM ([2]; test drug 10^-8 M, read-out: Anti 5-HT action (% of Control), 10^-8 M) of 80.7%.
In the case of `CN1CCC(=O)c2cn(CCCCN3CCC(C(=O)c4ccc(F)cc4)CC3)cc2C1=O` [Compound No. 18, 2-[4-[4-(4-fluorobenzoyl)piperidino]-butyl]-5-methyl-2,4,5,6,7,8-hexahydropyrrolo[3,4-c]azepine-4,8-dione], the “Anti α1 action (% of Control), 10^-7 M” value [1] is reported as 37.3 % of Control, the “Anti α1 action (% of Control), 10^-8 M” value [1] is reported as 76.0 % of Control and the remaining activity at 1 µM [2] is reported as 25.3%. It also gave a remaining activity at 0.1 µM [2] of 81.7%.
In the case of `CN1CCC(=NO)c2cn(CCCCN3CCC(C(=O)c4ccc(F)cc4)CC3)cc2C1=O` [Compound No. 21, 2-[4-[4-(4-fluorobenzoyl)piperidino]-butyl]-8-hydroxyimino-5-methyl-2,4,5,6,7,8-hexahydropyrrolo[3,4-c]azepin-4-one], the “Anti α1 action (% of Control), 10^-7 M” value [1] is reported as 36.9 % of Control, the “Anti α1 action (% of Control), 10^-8 M” value [1] is reported as 69.7 % of Control and the remaining activity at 1 µM [2] is reported as 24.9%. The remaining activity at 0.1 µM [2] was 85.5%.
